Results published in EP4635944A1, “2-AZABICYCLO[3.1.1]HEPTANE COMPOUND” (Daiichi Sankyo Company, Limited, priority 2022, dated 2024).

How the values were obtained:
[1] = Evaluation of metabolic stability in human liver microsomes; assay type: in vitro ADME; details: for metabolic stability compared to the corresponding compounds that were not deuterated: human liver microsomes, 30 minutes, deuterated at specific positions; for Human metabolic stability Residual ratio (%): test compound 1 µM, human liver microsomes 0.5 mg/mL, 30 minutes at 37°C
Method: Evaluation of metabolic stability of OX2R agonist
The test compound (final concentration was 1 µM, dissolved in DMSO/acetonitrile = 1/99), pooled human liver microsomes (final concentration was 0.5 mg/mL), and sodium phosphate buffer (pH 7.4, final concentration was 100 mM) were admixed and preincubated at 37°C for 15 minutes. Thereafter, a mixed solution of glucose-6-phosphate (final concentration was 10 mM), glucose-6-phosphate dehydrogenase (final concentration was 1 U/mL), and magnesium chloride (final concentration was 3.3 mM) was added and a certain amount of the mixture was collected. Then, an acetonitrile/methanol mixed solution (75/25, v/v) containing a 4.5-fold volume of internal standard substances (final concentrations: phenacetin: 1 ng/mL, niflumic acid: 15 ng/mL, furosemide: 20 ng/mL) was added to stop the reaction (0 min sample). Subsequently, β-nicotinamide adenine dinucleotide phosphate (final concentration was 1 mM) was added, and after 30 minutes of incubation at 37°C, a certain amount of the mixture was collected, to which an acetonitrile/methanol mixed solution (75/25, v/v) containing a 4.5-fold volume of the internal standard substances was added to stop the reaction (30 min sample). For both samples, a portion of the supernatant after centrifugation (about 1200 × g, 4°C, 15 minutes) was injected into a liquid chromatograph tandem quadrupole mass spectrometer (LC-MS/MS) for analysis. The metabolic stability was evaluated by comparing the test compound/internal standard substance ratio of the 30 min sample with the 0 min sample and calculating the residual ratio of the test compound. […]

[2] = system: male C57BL/6J mice; test: Acceleration of locomotor activity (arousal effect in mice); assay type: in vivo; details: 10 mg/kg of body weight, orally; cumulative counts for one hour after administration; solvent administration group = 100%
Method: Acceleration of locomotor activity
Acceleration of locomotor activity in rodents can be an indicator of arousal. An experiment was carried out on the arousal effect of the test compound in mice, using the acceleration of locomotor activity as the indicator. For the experiment, male C57BL/6J mice (6 weeks old, THE JACKSON LABORATORY JAPAN, INC., 6 to 8 animals per group) were used. Mice were allowed to acclimate for 1 hour or longer in the rearing cage in the room where the measurement was to be performed, until the experiment. After the acclimation, the mice were placed in a locomotor activity measuring apparatus (the behavior analyzer SCANET-40 series, Melquest Ltd.) equipped with an infrared sensor to start the measurement. After 2 hours, either the solvent or the test compound (10 mg/kg of body weight) was orally administered, and the mice were immediately returned to the measuring apparatus and the measurement was further performed for 2 hours. The test compound was suspended in the 0.5 w/v% methylcellulose 400 solution (Wako Pure Chemical Industries, Ltd., Japan). The locomotor activity was counted every 5 minutes, and the cumulative counts for one hour after administration were calculated for each treatment group. The proportion of the locomotor activity of the test compound administration group to the solvent administration group whose locomotor activity was defined as 100% was calculated and shown in Table 2.

[3] = target: T1, human OX2R (Homo sapiens, UniProt O43614); test: Evaluation of OX2R agonist activity (intracellular calcium, CHO-K1 cells with forced expression of human OX2R); assay type: cell-based; details: CHO-K1 cells expressing human OX2R; 100% = 5 µM of the reference compound; read-out: hOX2R EC50
T1 construct: host or cells: CHO-K1 (Chinese Hamster Ovary K1)
T1 sequence (O43614 1-444): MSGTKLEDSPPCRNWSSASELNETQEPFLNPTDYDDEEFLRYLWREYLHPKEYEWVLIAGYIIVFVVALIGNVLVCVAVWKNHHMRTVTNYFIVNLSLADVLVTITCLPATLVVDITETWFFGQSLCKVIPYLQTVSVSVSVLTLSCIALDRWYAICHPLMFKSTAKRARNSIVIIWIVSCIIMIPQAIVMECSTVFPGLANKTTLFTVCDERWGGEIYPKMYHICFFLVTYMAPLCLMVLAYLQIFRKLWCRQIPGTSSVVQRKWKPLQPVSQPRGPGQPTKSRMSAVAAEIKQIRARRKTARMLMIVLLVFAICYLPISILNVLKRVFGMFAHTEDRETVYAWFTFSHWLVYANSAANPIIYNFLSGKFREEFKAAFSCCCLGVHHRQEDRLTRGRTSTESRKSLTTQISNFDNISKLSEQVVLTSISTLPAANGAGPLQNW
Summary of the method: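 Cells seeded 7500/well, cultured 24 h, loaded with Fluo 4-AM (2.5 µg/mL final) plus probenecid for 30 min. Calcium response read as 480/540 nm excitation ratio; max–min signal 5–7 s after compound addition, normalized to buffer (0%) and 5 µM reference agonist (100%). EC50 from concentration series; 0.5% DMSO final.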

[4] = Evaluation of ERM production (GSH adduct detection in human liver microsomes); assay type: in vitro ADME; details: test compound 500 µM, human liver microsomes 2 mg/mL, GSH/SI-GSH, 37°C for 60 minutes; negative = no metabolite GSH adduct pair peak
Method: Evaluation of ERM production from OX2R agonist
The test compound (final concentration was 500 µM, dissolved in DMSO/acetonitrile = 1/9), pooled human liver microsomes (final concentration was 2 mg/mL), L-glutathione reduced (GSH, final concentration was 0.5 mM), potassium phosphate buffer (pH 7.4, final concentration was 100 mM), and stable isotope labeled GSH (SI-GSH, final concentration was 0.5 mM) were admixed and preincubated at 37°C for 3 minutes. Thereafter, a mixed solution of glucose-6-phosphate (final concentration was 25 mM), β-nicotinamide adenine dinucleotide phosphate (final concentration was 0.25 mM), glucose-6-phosphate dehydrogenase (final concentration was 2 U/mL), and magnesium chloride (final concentration was 10 mM) was added, and incubation was performed at 37°C for 60 minutes. After the incubation, the reaction was stopped by adding a 2-fold volume of acetonitrile. A portion of the supernatant after centrifugation (about 1200 × g, 4°C, 15 minutes) was injected into a liquid chromatograph quadrupole time-of-flight mass spectrometer (Q-Tof) for analysis. The mass number of metabolites, GSH adduct and SI-GSH adduct, predicted from the chemical structural formula of the test compound was calculated, and the presence of the corresponding peaks in the measurement sample was checked. Peaks with the same retention time and approximately equal peak area of the detected peaks of the metabolites, GSH adduct and SI-GSH adduct, were extracted as pair peaks. The presence of a pair peak determined to be a metabolite GSH adduct was considered positive for ERM production potential, whereas the absence of such a peak was considered negative for ERM production potential.

Compound	metabolic stability compared to the corresponding compounds that were not deuterated [1]	Human metabolic stability Residual ratio (%) [1] [%]	Locomotor activity (%) [2] [%]	EC50 [3] [nM]	ERM production potential [4]
[2H]C([2H])([2H])[C@@]([2H])(O)C(=O)N1C2CC(F)(C2)[C@H](NS(C)(=O)=O)[C@@H]1Cc1cccc(-c2ccccc2)c1F [Example 89, N-{(3S,4R)-5-Fluoro-3-[(2-fluoro[biphenyl]-3-yl)methyl]-2-[(2R)-2-hydroxy(^2H4)propanoyl]-2-azabicyclo[3.1.1]heptan-4-yl}methanesulfonamide]	improved metabolic stability	75	412	18	–
[2H]C([2H])([2H])[C@@]([2H])(O)C(=O)N1C2CC(C2)[C@H](NS(C)(=O)=O)[C@@H]1Cc1cc(F)cc(-c2ccccc2)c1F [Example 88, N-{(3S,4S)-3-[(2,5-Difluoro[biphenyl]-3-yl)methyl]-2-[(2R)-2-hydroxy(^2H4)propanoyl]-2-azabicyclo[3.1.1]heptan-4-yl}methanesulfonamide]	improved metabolic stability	59	–	43	negative
C[C@@H](O)C(=O)N1C2CC(C2)[C@H](NS(C)(=O)=O)[C@@H]1Cc1cc(F)cc(-c2ccccc2)c1F [Example 58, N-{(3S,4S)-3-[(2,5-Difluoro[biphenyl]-3-yl)methyl]-2-[(2R)-2-hydroxypropanoyl]-2-azabicyclo[3.1.1]heptan-4-yl}methanesulfonamide]	–	34	–	38	negative
[2H][C@](C)(O)C(=O)N1C2CC(C2)[C@H](NS(C)(=O)=O)[C@@H]1Cc1cccc(-c2ccccc2)c1F [Example 97, N-{(3S,4S)-3-[(2-Fluoro[biphenyl]-3-yl)methyl]-2-[(2R)-2-hydroxy(2-^2H)propanoyl]-2-azabicyclo[3.1.1]heptan-4-yl}methanesulfonamide]	improved metabolic stability	57	601	21	negative
[2H]C([2H])([2H])[C@@]([2H])(O)C(=O)N1C2CC(C2)[C@H](NS(C)(=O)=O)[C@@H]1Cc1cccc(-c2ccccc2)c1F [Example 76, N-{(3S,4S)-3-[(2-Fluoro[biphenyl]-3-yl)methyl]-2-[(2R)-2-hydroxy(^2H4)propanoyl]-2-azabicyclo[3.1.1]heptan-4-yl}methanesulfonamide]	improved metabolic stability	59	–	18	negative
[2H][C@](C)(O)C(=O)N1C2CC(C2)[C@H](NS(C)(=O)=O)[C@@H]1Cc1cc(F)cc(-c2ccccc2)c1F [Example 98, N-{(3S,4S)-3-[(2,5-Difluoro[biphenyl]-3-yl)methyl]-2-[(2R)-2-hydroxy(2-^2H)propanoyl]-2-azabicyclo[3.1.1]heptan-4-yl}methanesulfonamide]	improved metabolic stability	58	281	36	negative
[2H]C([2H])([2H])[C@@]([2H])(O)C(=O)N1C2CC(F)(C2)[C@H](NS(C)(=O)=O)[C@@H]1Cc1cc(F)cc(-c2ccccc2)c1F [Example 87, N-{(3S,4R)-3-[(2,5-Difluoro[biphenyl]-3-yl)methyl]-5-fluoro-2-[(2R)-2-hydroxy(^2H4)propanoyl]-2-azabicyclo[3.1.1]heptan-4-yl}methanesulfonamide]	improved metabolic stability	70	221	30	–
